In PubChem BioAssay (NCI):
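Growth conditions: 96-well plates. Treatment: test compound, 48 hours, 5 concentrations. Analysis: linear interpolation between bracketing concentrations; unreached endpoints set to highest concentration. GI50: concentration for 50% inhibition of growth. TGI: concentration producing complete growth inhibition.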

What was measured:
Experiment in all cases: NCI anticancer screen, dose series, 48 h; in the data active = GI50 below about 0.43 µM; inactive = the rest
UACC-257 melanoma = tested on: UACC-257 melanoma
KM12 colon = tested on: KM12 colon
CAKI-1 renal = tested on: CAKI-1 renal
SF-539 CNS = tested on: SF-539 CNS
MCF7 breast = tested on: MCF7 breast
CCRF-CEM leukemia = tested on: CCRF-CEM leukemia
HOP-62 NSCLC = tested on: HOP-62 NSCLC
SW-620 colon = tested on: SW-620 colon
T-47D breast = tested on: T-47D breast
M14 melanoma = tested on: M14 melanoma
TK-10 renal = tested on: TK-10 renal
HT29 colon = tested on: HT29 colon
SF-268 CNS = tested on: SF-268 CNS
SNB-75 CNS = tested on: SNB-75 CNS
OVCAR-5 ovarian = tested on: OVCAR-5 ovarian
MDA-MB-435 = tested on: MDA-MB-435
K-562 leukemia = tested on: K-562 leukemia
HS 578T breast = tested on: HS 578T breast
LOX IMVI melanoma = tested on: LOX IMVI melanoma
OVCAR-8 ovarian = tested on: OVCAR-8 ovarian
SF-295 CNS = tested on: SF-295 CNS
UACC-62 melanoma = tested on: UACC-62 melanoma
RXF 393 renal = tested on: RXF 393 renal
RPMI-8226 leukemia = tested on: RPMI-8226 leukemia
A498 renal = tested on: A498 renal
OVCAR-3 ovarian = tested on: OVCAR-3 ovarian
SNB-19 CNS = tested on: SNB-19 CNS
NCI-H23 lung = tested on: NCI-H23 lung
HCC-2998 colon = tested on: HCC-2998 colon
MDA-MB-231 breast = tested on: MDA-MB-231 breast
DU-145 prostate = tested on: DU-145 prostate
A549 NSCLC = tested on: A549 NSCLC
SR leukemia = tested on: SR leukemia
SN12C renal = tested on: SN12C renal
NCI-H460 lung = tested on: NCI-H460 lung
HOP-92 NSCLC = tested on: HOP-92 NSCLC
SK-MEL-5 melanoma = tested on: SK-MEL-5 melanoma
MOLT-4 leukemia = tested on: MOLT-4 leukemia
SK-MEL-2 melanoma = tested on: SK-MEL-2 melanoma
786-0 renal = tested on: 786-0 renal
NCI/ADR-RES ovarian = tested on: NCI/ADR-RES ovarian
SK-OV-3 ovarian = tested on: SK-OV-3 ovarian
OVCAR-4 ovarian = tested on: OVCAR-4 ovarian
COLO 205 colon = tested on: COLO 205 colon
PC-3 prostate = tested on: PC-3 prostate
NCI-H226 lung = tested on: NCI-H226 lung
U251 CNS = tested on: U251 CNS

COC(=O)c1ccc(NC2=C(Cl)C(=O)C(C)=C(C)C2=O)cc1
4.64 µM: TGI (KM12 colon)
7.31 µM: TGI (SNB-75 CNS)
4.72 µM: TGI (T-47D breast)
4.02 µM: TGI (SR leukemia)
3.3 µM: TGI (OVCAR-3 ovarian)
40.5 µM: TGI (M14 melanoma)
5.29 µM: TGI (RPMI-8226 leukemia)
4.08 µM: TGI (SK-MEL-5 melanoma)
8.73 µM: TGI (MDA-MB-435)
5.31 µM: TGI (K-562 leukemia)
3.41 µM: TGI (LOX IMVI melanoma)
5.53 µM: TGI (UACC-62 melanoma)
4.98 µM: TGI (CCRF-CEM leukemia)
6.64 µM: TGI (SF-295 CNS)
4.42 µM: TGI (SW-620 colon)
3.11 µM: TGI (HOP-92 NSCLC)
3.14 µM: TGI (OVCAR-4 ovarian)
7.71 µM: TGI (MDA-MB-231 breast)
10.9 µM: TGI (NCI/ADR-RES ovarian)
inactive: GI50 (UACC-257 melanoma) 3.07 µM | GI50 (KM12 colon) 2.06 µM | GI50 (CAKI-1 renal) 2.95 µM | GI50 (SF-539 CNS) 2.33 µM | GI50 (MCF7 breast) 2.66 µM | GI50 (CCRF-CEM leukemia) 1.08 µM | GI50 (HOP-62 NSCLC) 5.52 µM | GI50 (SW-620 colon) 2.1 µM | GI50 (T-47D breast) 1.74 µM | GI50 (M14 melanoma) 2.84 µM | GI50 (TK-10 renal) > 100 µM | GI50 (HT29 colon) 6.64 µM | GI50 (SF-268 CNS) 3.79 µM | GI50 (SNB-75 CNS) 1.6 µM | GI50 (OVCAR-5 ovarian) 6.08 µM | GI50 (MDA-MB-435) 1.84 µM | GI50 (K-562 leukemia) 1.58 µM | GI50 (HS 578T breast) 4 µM | GI50 (LOX IMVI melanoma) 1.81 µM | GI50 (OVCAR-8 ovarian) 6.89 µM | GI50 (SF-295 CNS) 2.18 µM | GI50 (UACC-62 melanoma) 1.77 µM | GI50 (RXF 393 renal) 1.75 µM | GI50 (RPMI-8226 leukemia) 2.19 µM | GI50 (A498 renal) 2.06 µM | GI50 (OVCAR-3 ovarian) 1.81 µM | GI50 (SNB-19 CNS) 3.32 µM | GI50 (NCI-H23 lung) 3.77 µM | GI50 (HCC-2998 colon) 3.84 µM | GI50 (MDA-MB-231 breast) 2.68 µM | GI50 (DU-145 prostate) 11.2 µM | GI50 (A549 NSCLC) 5.25 µM | GI50 (SR leukemia) 1.22 µM | GI50 (SN12C renal) 9.11 µM | GI50 (NCI-H460 lung) 4.7 µM | GI50 (HOP-92 NSCLC) 1.46 µM | GI50 (SK-MEL-5 melanoma) 1.92 µM | GI50 (MOLT-4 leukemia) 1.43 µM | GI50 (SK-MEL-2 melanoma) 3.2 µM | GI50 (786-0 renal) 15.1 µM | GI50 (NCI/ADR-RES ovarian) 2.65 µM | GI50 (SK-OV-3 ovarian) 5.13 µM | GI50 (OVCAR-4 ovarian) 1.73 µM | GI50 (COLO 205 colon) 7.69 µM | GI50 (PC-3 prostate) 2.63 µM | GI50 (NCI-H226 lung) 5.82 µM | GI50 (U251 CNS) 3.77 µM
93.8 µM: TGI (HS 578T breast)
96.7 µM: TGI (A498 renal)
4.25 µM: TGI (RXF 393 renal)
5.13 µM: TGI (MOLT-4 leukemia)
> 100 µM: TGI (UACC-257 melanoma) | TGI (CAKI-1 renal) | TGI (MCF7 breast) | TGI (HOP-62 NSCLC) | TGI (TK-10 renal) | TGI (HT29 colon) | TGI (SF-268 CNS) | TGI (OVCAR-5 ovarian) | TGI (OVCAR-8 ovarian) | TGI (SNB-19 CNS) | TGI (NCI-H23 lung) | TGI (HCC-2998 colon) | TGI (DU-145 prostate) | TGI (A549 NSCLC) | TGI (SN12C renal) | TGI (NCI-H460 lung) | TGI (SK-MEL-2 melanoma) | TGI (786-0 renal) | TGI (SK-OV-3 ovarian) | TGI (COLO 205 colon) | TGI (PC-3 prostate) | TGI (NCI-H226 lung) | TGI (U251 CNS)
5.91 µM: TGI (SF-539 CNS)
